{
  "source": "patent US20100297025A1",
  "about": "“Novel compositions magnetic particles covered with gem-bisphosphonate derivatives” (Guerbet., priority 2002, published 2010)",
  "key": {"[1]": {"biological_target": "T1, folate binding protein (FBP) (Bos taurus, UniProt P02702)", "T1 construct": "purchased Sigma F-0504", "T1 sequence (P02702 20-234)": "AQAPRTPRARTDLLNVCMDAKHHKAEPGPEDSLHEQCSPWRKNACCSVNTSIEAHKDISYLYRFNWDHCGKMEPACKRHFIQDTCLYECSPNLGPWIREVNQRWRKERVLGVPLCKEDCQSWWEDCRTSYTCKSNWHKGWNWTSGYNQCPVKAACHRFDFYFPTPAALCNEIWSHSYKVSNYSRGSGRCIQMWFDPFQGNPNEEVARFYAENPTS", "assay": "Affinity for Folate Binding Protein (FBP) by the BiaCore technique", "conditions": "immobilized FBP", "procedure": "1/ Assay for Affinity of Example 17 for Folate Binding Protein (FBP) by the BiaCore Technique\nPGM buffer: 100 mM KH2PO4, pH 7, 10% glycerol and 4 mM β-mercaptoethanol.\nThe immobilization of the FBP was carried out at 1 mg/ml in the PGM buffer according to the protocols recommended by BIAcore for coupling to amines. After this, the remaining active carboxylated groups are saturated with 1M of ethanolamine pH=8. The amount of FBP attached corresponds approximately to 1.5 ng/mm^2.\nExample 17 was at a concentration of 0.170 mol/L of iron, which corresponds to 1.9×10^−5 mol of particles/L (considering a crystal of 7.5 nm, i.e. 8900 atoms of iron/particle).\nThe attachment of the folate was followed at four different concentrations (125, 250, 500 and 1000 μM) whereas that of example 17 was carried out at […] and at 10 nM (expressed as mol of particle/L). The association and the dissociation were studied with a flow at 25 μl/min. The association and dissociation phases are 5 minutes."}, "human MMP-3": {"biological_target": "T2, human MMP-3 (Homo sapiens, UniProt P08254)", "T2 construct": "host or cells: sF9 (insect) cell line", "T2 sequence (P08254 100-477)": "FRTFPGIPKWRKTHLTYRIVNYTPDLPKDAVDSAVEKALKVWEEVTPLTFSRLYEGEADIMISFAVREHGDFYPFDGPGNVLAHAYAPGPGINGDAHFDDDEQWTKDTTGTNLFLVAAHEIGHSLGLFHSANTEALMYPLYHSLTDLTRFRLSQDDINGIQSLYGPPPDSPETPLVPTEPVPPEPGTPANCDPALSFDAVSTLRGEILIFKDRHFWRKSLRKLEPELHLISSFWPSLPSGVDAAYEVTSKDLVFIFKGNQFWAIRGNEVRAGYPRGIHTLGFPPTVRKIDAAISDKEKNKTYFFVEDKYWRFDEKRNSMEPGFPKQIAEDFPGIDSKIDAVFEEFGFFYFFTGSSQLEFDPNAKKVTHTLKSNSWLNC", "assay": "Inhibitory effect on human MMP-3 activity, fluorimetry", "format": "biochemical", "conditions": "MMP-3, reference product", "experimental": "More precisely, the test product, or the reference product or water, was added to a buffer solution, at pH=6, containing 6 nM of MMP-3. The fluorescence of this medium was evaluated at λex=340 nm and λem=405 nm by means of a plate reader (GeminiXS, Molecular Devices), after preincubation for 30 min at 37° C. (t=0). This measurement at t=0 serves to verify any possible interference of a product with the fluorescent detection. The enzyme reaction was then initiated by adding 10 μm of the substrate NFF-2. After incubation for 90 min at 37° C., the fluorescence was again evaluated under the same conditions as previously (t=90 min). The enzyme activity was then determined by subtracting the signal measured at t=0 from the signal measured at t=90 min.\nThe final result is expressed as percentage inhibition of the enzyme activity."}, "αvβ5": {"biological_target": "αvβ5 (Homo sapiens, UniProt P06756+P18084)", "sequence (P06756 31-1048)": "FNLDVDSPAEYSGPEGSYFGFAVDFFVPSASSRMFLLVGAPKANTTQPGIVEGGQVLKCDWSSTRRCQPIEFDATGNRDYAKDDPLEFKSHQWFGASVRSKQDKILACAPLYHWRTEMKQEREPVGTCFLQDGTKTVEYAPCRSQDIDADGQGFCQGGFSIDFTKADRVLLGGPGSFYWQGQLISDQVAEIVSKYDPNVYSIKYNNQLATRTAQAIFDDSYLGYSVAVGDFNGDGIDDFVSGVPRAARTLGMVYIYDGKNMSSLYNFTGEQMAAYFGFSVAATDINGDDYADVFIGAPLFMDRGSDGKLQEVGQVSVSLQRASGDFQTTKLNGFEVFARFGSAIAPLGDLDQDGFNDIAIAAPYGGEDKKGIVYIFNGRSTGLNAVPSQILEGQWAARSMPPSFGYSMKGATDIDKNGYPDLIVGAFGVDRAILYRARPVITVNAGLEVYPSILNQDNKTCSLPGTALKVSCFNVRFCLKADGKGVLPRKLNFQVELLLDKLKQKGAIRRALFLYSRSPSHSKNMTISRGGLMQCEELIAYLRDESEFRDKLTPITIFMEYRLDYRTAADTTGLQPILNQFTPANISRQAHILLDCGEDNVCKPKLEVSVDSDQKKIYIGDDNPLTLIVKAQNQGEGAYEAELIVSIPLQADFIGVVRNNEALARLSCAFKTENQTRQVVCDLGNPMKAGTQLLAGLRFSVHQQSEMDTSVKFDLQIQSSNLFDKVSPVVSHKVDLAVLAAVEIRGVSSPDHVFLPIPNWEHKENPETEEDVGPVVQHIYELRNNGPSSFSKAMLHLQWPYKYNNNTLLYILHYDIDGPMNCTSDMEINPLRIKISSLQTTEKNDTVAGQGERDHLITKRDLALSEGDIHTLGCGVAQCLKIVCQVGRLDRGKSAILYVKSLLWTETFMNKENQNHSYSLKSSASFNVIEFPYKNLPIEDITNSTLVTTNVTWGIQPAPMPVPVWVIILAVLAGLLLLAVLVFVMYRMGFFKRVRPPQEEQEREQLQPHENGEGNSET", "sequence (P18084 24-799)": "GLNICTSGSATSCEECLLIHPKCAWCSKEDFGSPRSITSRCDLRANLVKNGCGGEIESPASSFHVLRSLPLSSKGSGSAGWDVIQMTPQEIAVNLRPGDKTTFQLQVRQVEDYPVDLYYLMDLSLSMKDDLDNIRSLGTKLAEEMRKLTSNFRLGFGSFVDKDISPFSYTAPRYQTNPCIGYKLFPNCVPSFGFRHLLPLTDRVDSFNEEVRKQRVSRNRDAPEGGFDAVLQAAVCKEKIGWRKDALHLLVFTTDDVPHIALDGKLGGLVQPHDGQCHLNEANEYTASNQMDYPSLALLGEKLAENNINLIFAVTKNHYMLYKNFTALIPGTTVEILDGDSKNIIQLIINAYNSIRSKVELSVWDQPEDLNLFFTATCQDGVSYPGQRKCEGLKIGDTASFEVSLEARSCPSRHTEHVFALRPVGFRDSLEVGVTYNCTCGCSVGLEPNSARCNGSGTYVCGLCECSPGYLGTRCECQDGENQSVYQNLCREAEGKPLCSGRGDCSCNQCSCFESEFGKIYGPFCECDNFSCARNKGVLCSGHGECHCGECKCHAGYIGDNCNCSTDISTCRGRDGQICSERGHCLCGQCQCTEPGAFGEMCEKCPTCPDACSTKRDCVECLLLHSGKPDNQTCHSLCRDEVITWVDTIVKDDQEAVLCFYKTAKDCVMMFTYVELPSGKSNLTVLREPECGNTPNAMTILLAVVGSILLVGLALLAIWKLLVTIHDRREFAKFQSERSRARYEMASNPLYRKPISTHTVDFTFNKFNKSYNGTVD", "conditions": "cited from earlier work"}, "α5β1": {"biological_target": "α5β1 (Homo sapiens, UniProt P05556+P08648)", "sequence (P08648 42-1049)": "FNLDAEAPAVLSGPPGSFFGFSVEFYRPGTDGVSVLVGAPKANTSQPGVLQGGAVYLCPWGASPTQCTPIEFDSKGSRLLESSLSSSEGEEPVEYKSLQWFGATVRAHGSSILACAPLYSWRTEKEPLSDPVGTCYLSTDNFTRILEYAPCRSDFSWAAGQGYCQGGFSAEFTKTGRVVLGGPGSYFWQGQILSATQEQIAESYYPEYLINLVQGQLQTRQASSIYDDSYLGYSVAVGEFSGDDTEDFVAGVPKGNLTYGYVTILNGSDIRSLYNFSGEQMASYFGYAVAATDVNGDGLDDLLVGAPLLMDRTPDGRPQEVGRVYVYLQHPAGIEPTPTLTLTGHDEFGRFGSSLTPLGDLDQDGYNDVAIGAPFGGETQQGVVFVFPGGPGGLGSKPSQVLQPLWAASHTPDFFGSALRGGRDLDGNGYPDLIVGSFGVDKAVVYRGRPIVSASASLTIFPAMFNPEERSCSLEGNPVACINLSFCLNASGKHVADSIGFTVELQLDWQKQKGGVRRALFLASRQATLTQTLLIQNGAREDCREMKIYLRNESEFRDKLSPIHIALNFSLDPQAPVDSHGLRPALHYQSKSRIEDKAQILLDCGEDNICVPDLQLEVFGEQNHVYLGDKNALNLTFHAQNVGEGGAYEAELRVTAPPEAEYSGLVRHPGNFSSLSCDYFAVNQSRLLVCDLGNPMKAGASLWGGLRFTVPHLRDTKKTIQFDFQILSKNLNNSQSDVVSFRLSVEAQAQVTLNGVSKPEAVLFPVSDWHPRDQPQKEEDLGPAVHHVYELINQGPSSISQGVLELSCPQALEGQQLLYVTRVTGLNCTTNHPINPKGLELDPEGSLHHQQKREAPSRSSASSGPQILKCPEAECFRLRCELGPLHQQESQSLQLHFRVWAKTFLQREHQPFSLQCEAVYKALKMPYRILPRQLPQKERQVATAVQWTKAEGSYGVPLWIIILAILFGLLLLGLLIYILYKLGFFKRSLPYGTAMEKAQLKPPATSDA", "sequence (P05556 21-798)": "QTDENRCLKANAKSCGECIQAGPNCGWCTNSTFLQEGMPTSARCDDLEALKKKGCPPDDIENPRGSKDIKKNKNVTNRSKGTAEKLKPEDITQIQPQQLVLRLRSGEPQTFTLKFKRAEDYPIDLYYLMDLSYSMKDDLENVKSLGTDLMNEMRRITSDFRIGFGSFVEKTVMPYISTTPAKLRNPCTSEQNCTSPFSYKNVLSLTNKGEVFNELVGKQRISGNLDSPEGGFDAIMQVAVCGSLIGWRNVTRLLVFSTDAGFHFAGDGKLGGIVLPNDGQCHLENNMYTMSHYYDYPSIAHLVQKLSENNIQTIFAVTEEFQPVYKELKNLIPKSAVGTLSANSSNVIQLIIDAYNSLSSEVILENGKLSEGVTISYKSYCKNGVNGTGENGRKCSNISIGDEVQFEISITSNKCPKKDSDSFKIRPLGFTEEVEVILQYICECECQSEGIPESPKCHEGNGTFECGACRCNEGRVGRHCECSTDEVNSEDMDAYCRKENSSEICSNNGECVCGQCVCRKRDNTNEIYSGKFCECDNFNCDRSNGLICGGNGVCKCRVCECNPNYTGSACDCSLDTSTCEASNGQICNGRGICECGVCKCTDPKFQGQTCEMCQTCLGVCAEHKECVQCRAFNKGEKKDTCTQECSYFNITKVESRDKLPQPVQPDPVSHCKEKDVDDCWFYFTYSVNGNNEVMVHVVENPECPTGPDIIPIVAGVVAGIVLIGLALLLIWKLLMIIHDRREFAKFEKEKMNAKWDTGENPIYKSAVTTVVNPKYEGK", "conditions": "cited from earlier work"}},
  "data": [
    {"compound": "Nc1nc2ncc(CNc3ccc(C(=O)N[C@@H](CCC(=O)O)C(=O)O)cc3)nc2c(=O)[nH]1", "note": "[Folic acid]", "values": [
      {"measurement": "kon", "setting": "[1]; flow 25 μl/min, read-out: Association rate ka", "result": 1000, "unit": "M⁻¹ s⁻¹"},
      {"measurement": "koff", "setting": "[1]; flow 25 μl/min, read-out: Dissociation rate kd", "result": 0.0016, "unit": "s⁻¹"},
      {"measurement": "Kd", "setting": "[1]; read-out: Affinity constant KD", "result": 1600, "unit": "nM"}
    ]},
    {"compound": "CNC(=O)[C@H](Cc1c[nH]c2ccccc12)NC(=O)[C@@H](CC(=O)NO)CC(C)C", "note": "[Ilomastat]", "values": [
      {"measurement": "IC50", "setting": "human MMP-3", "result": 130, "unit": "nM"}
    ]},
    {"compound": "cyclo(ARGD-Mamb) [XJ735]", "values": [
      {"measurement": "blocking of other integrins", "setting": "αvβ5", "result": "does not block"},
      {"measurement": "blocking of other integrins", "setting": "α5β1", "result": "does not block"}
    ]}
  ]
}
